Experimental data from patent publication US8110543B2, “Anti-invasive and anti-angiogenic compositions” (Angstrom Pharmaceuticals, Inc., priority 1997, dated 2012).

Assays:
[1] = test system: MDA-MB-231 human breast cancer cells; test: Matrigel invasion assay, MDA-MB-231 cells; assay type: cell-based; settings: FIG. 7
Description: Several peptides were tested for anti-invasive capacity in a Matrigel® invasion assay system as indicated above (Kleinman et al., supra; Parish et al., supra). Several invasive human tumor lines (PC-3, MDA-MB-231) and non-human tumors (3LL, Mat B-III) were examined. The rat breast cancer line Mat B III and the human prostate cancer line PC-3 were initially used.
Tumor cells (5×10^5/mL, in a volume of 200 μL) in serum-free RPMI 1640 medium were added to a disposable transwell invasion chamber coated with Matrigel® (Becton Dickinson, Lincoln Park, N.J.). The invasion chambers were placed in 24-well tissue culture plates filled with serum-free RPMI-1640 and the plates were placed in an atmosphere of 5% CO2 in humidified air at 37° C. for 48-72 hours. The chambers were then removed, inverted, and the cells which had invaded (and now appeared on the bottom face of the invasion chamber) were fixed and stained using Diff-Quick® (Scientific Products). Cells were counted in 10 different fields on each filter and an average obtained.

U87 tumors = test: U87 glioblastoma orthotopic model; assay type: in vivo, mice
Description: U87 cells were inoculated into the ventricles of nude mice and treatment was initiated 72 hrs after inoculation. Tumor volume was determined using caliper measurements after euthanasia and necropsy.
A: Control; B: Å6 only; C: CDDP only; D: Å6+CDDP.
U87 tumors were surgically inoculated into the cerebral ventricles of mice. The animals were allowed to recover for 72 hours at which time treatment with Å6 (75 mg/kg/day IP bid), CDDP (3 mg/kg/day given every other day from day 4×6 administrations), or a combination of Å6+CDDP was initiated,
Animals were treated for 21 days at which time they were euthanized and their brains evaluated for the presence of tumor. Transverse sections were stained with hematoxylin and eosin (H&E).
Tumor sections were also evaluated for microvessel density using antibodies specific for mouse-CD31 in immunostaining. Very few CD31^+ foci were evident in animals treated with the combination of Å6+CDDP.
Tumors were established as in the previous section, and the same therapeutic regimens were employed. Treatment was discontinued at day 21, and survival was measured. Control animals appeared moribund around day 25 and all of the animals in this group were dead by day 30.

Substance: Ac-KPSSPPEE-NH2 [Å6, CH3CO-Lys-Pro-Ser-Ser-Pro-Pro-Glu-Glu-NH2]
- invasion of MDA-MB-231 cells through Matrigel [1]: inhibits the invasion
- differentiation of the vessels (U87 tumors; qualitative): fewer branching vessels
- microvessel density (CD31+ foci), angiogenesis (U87 tumors; tumor sections, mouse-CD31 immunostaining): inhibited angiogenesis to some extent
